Several values for one entry are separate records, joined by “and”; a condition that tells them apart may be missing. Identical values can stand only once. Like-named read-outs stand apart in the source and are kept apart here.
Columns and labels:
[1] = tested on: patients with hyperuricemia and gout; conditions: cited from earlier work; for Subjects that required treatment for at least one gout flare: first 8 weeks, with gout flare prophylaxis; for Flares per patient month (flare frequency): worked out from literature data
patients with gout = conditions: cited from earlier work; for Patients with gout flares requiring treatment in a month: colchicine prophylaxis; for Flares per patient month (flare frequency): worked out from literature data
[2] = tested on: mice genetically deficient in endogenous uricase; assay: Proof of concept study in uricase deficient mice; type: in vivo
Description: A pharmacology study in mice that were genetically deficient in endogenous uricase was conducted. The study evaluated the efficacy of a dose regimen consisting of three immunizations with SEL 212 followed by doses of pegsiticase alone in preventing the formation of ADAs to pegsiticase. The treatment period consisted of the first 14 days of the study. In the study, mice were separated into three treatment groups. During the treatment period: • the first group, referred to as the Untreated Group, received no treatment; • the second group, referred to as the Pegsiticase Group, was treated with pegsiticase alone; and • the third group, referred to as the SVP Rapamycin+Pegsiticase Group, was treated with SVP Rapamycin co administered with pegsiticase.
The Pegsiticase Group and SVP Rapamycin+Pegsiticase Group were treated on days zero, seven and 14 of the treatment period. Each group was then treated with pegsiticase alone on days 35 and 42 of the study, or the challenge period. Uricase specific ADA levels were recorded to determine the formation of ADAs to pegsiticase. Uric acid levels were measured to determine effectiveness of SVP Rapamycin co administered with pegsiticase in lowering uric acid levels below 6 mg/dl, which is the treatment target for gout patients.

nonhuman primates = assay: Proof of concept study in nonhuman primates, uricase specific ADAs; type: in vivo; conditions: pegsiticase alone, five monthly doses; by the end of the study
Description: A preclinical study to evaluate the ability of SVP Rapamycin to mitigate the formation of uricase specific ADAs in nonhuman primates was also conducted. As depicted in FIG. 3, during the study: • pegsiticase was administered alone, referred to as the Empty Nanoparticle Group, or • was co-administered with one of two dose levels of SVP Rapamycin, referred to as the SVP Rapamycin 0.1× and SVP Rapamycin 1× Groups, respectively. The SVP Rapamycin 0.1× Group received a dose level of SVP Rapamycin of 0.3 mg/kg and the SVP Rapamycin 1× Group received a dose level of SVP Rapamycin of 3 mg/kg.
The Empty Nanoparticle Group received three monthly doses of pegsiticase and each of the SVP Rapamycin 0.1× Group and SVP Rapamycin 1× Group received three monthly doses of pegsiticase co-administered with SVP Rapamycin. All groups then received two monthly doses of pegsiticase alone. The SVP Rapamycin 0.1× Group received one tenth of the dose administered in the SVP Rapamycin 1× Group.

[3] = tested on: subjects with elevated serum uric acid levels greater than 6 mg/dl; assay: Phase 1a clinical trial, single intravenous infusion of pegsiticase alone; type: in vivo
Description: The Phase 1a clinical trial for SEL 212 was an ascending dose trial of pegsiticase alone in 22 subjects with elevated serum uric acid levels greater than 6 mg/dl who were separated into five cohorts. Each cohort received a single intravenous infusion of pegsiticase at the following dose levels of 0.1 mg/kg for Cohort #1, 0.2 mg/kg for Cohort #2, 0.4 mg/kg for Cohort #3, 0.8 mg/kg for Cohort #4 and 1.2 mg/kg for Cohort #5. Dosing began with the lowest dose and only after an entire cohort was safely dosed was the next cohort started.
FIG. 4 depicts average serum uric acid levels of the Phase 1a clinical trial's five cohorts tested at different measurement intervals (Day 7, 14, 21 and 30) during the course of the 30 day period following the single intravenous infusion of pegsiticase at the outset of the trial.
The serum uric acid levels were measured at baseline and days seven, 14, 21 and 30 and uricase specific ADA levels at baseline and days seven, 14 and 30 following a single intravenous injection of pegsiticase. Uricase specific ADA levels at day 21 in the Phase 1a clinical trial were not measured. Based on the results from the Phase 1a clinical trial, it was observed that pegsiticase at a tolerated dose is capable of achieving and maintaining a reduction of serum uric acid below the target of 6 mg/dl for a 30 day period in the absence of inhibitory uricase specific ADAs.

anti-uricase IgG = assay: Anti-uricase antibody titer by sandwich ELISA, monthly dosing in symptomatic gout patients; type: in vivo, human
Description: Safety, tolerability, sUA, ADAs, and uricase activity were monitored.
In this example, “responder” indicates an individual with serum uric acid values […] and serum uric acid ≤1 mg/dL on day 21 (stopping rule). In this example, a “non-responder” is a subject having serum uric acid levels ≥6 mg/dL at any time during a 28 day dosing cycle. The “maximum titer” is the maximum titer observed during a 28 day dosing cycle.
Anti-uricase antibodies were detected using a sandwich ELISA. […] Uricase activity was measured fluorometrically.

uricase activity = conditions: human, in vivo
Description: Methods: Patients with symptomatic gout (≥1 tophus, gout flare within 6 months or gouty arthropathy) and elevated SUA ≥6 mg/dL were treated with fixed doses of the pegylated uricase (0.2 mg/kg) in combination with SEL-110 (0.1 and 0.15 mg/kg), or the pegylated uricase (0.2 or 0.4 mg/kg) alone as a control. Patients were infused in 28-day cycles up to 5 times. Safety, tolerability, sUA, ADAs, and uricase activity were monitored.
Uricase activity was measured fluorometrically. As uricase converts uric acid into allantoin and H2O2, horseradish peroxidase was added and reached with H2O2 and a fluorescent probe to yield a quantifiable signal.

[4] = tested on: patients with serum uric acid levels greater than 6 mg/dl; assay: Phase 1b clinical trial, SVP Rapamycin alone, pegsiticase alone or SEL 212
Description: The Phase 1b clinical trial enrolled 63 patients with serum uric acid levels greater than 6 mg/dl separated into 11 cohorts. A single intravenous infusion of SVP Rapamycin alone at the following ascending dose levels was administered to four cohorts in ascending order. Each cohort consisted of seven patients and were designated as follows: Cohort #1 (0.03 mg/kg), Cohort #3 (0.1 mg/kg), Cohort #5 (0.3 mg/kg) and Cohort #7 (0.5 mg/kg) collectively the SVP Rapamycin Cohorts. After a cohort of the SVP-Rapamycin alone had successfully and safely been dosed the corresponding dose level of SVP Rapamycin was combined with a fixed dose of pegsiticase (0.4 mg/kg). The combination was co-administered sequentially as a single intravenous infusion, with the SVP Rapamycin infusion preceding the pegsiticase infusion. The cohort designation is as follows for the six cohorts (5 patients per cohort), which were Cohort #2 (SVP Rapamycin 0.03 mg/kg+0.4 mg/kg pegsiticase), Cohort #4 (SVP Rapamycin 0.1 mg/kg+0.4 mg/kg pegsiticase), Cohort #6 (SVP Rapamycin 0.3 mg/kg+0.4 mg/kg pegsiticase), Cohort #10 (0.4 mg/kg pegsiticase+0.03 mg/kg SVP Rapamycin separated by 48 hours), Cohort #12 (SVP Rapamycin 0.15 mg/kg+0.4 mg/kg pegsiticase) and Cohort #14 (SVP Rapamycin 0.1 mg/kg+0.4 mg/kg pegsiticase) collectively the SEL 212 Cohorts. In Cohort #9 a fixed amount of pegsiticase alone at a dose level of 0.4 mg/kg was administered to five patients, which is referred to as the Pegsiticase Cohort. […] The subjects were monitored during a 30 day period post infusion with visits occurring on day 7, 14,21 and the end of trial visit on day 30. Blood and serum of each patient was evaluated for serum uric acid, ADAs (specifically anti-PEG, anti-uricase and anti-pegsiticase) and safety parameters. The primary objective of the Phase 1b clinical trial was to evaluate the safety and tolerability of SVP Rapamycin alone and in combination with a fixed dose of pegsiticase. A secondary clinical objective was to evaluate the ability of SVP Rapamycin co-administered with pegsiticase to reduce serum uric acid levels and mitigate the formation of uricase specific ADAs when compared to administration of pegsiticase alone.

[5] = tested on: patients with refractory gout; conditions: cited from earlier work; for Flares per patient month (flare frequency): worked out from literature data; for Mean uric acid levels at four weeks: monthly dosing

Cc1nc(-c2ccc(OCC(C)C)c(C#N)c2)sc1C(=O)O [Febuxostat, febuxostat]
Subjects that required treatment for at least one gout flare ([1]; 80 mg/day, out of 255 subjects): 55 | Flares per patient month (flare frequency) ([1]; 80 mg/day): 0.22 flares per patient month | Flares per patient month (flare frequency) ([1]; 80 mg/day, listed as febuxostat): at least 0.22 flares per patient month | Subjects that required treatment for at least one gout flare ([1]; 120 mg/day, out of 250 subjects): 90 | Flares per patient month (flare frequency) ([1]; 120 mg/day): 0.36 flares per patient month | Flares per patient month (flare frequency) ([1]; 120 mg/day, listed as febuxostat): ≥ 0.36 flares per patient month

O=C(O)CSc1nnc(Br)n1-c1ccc(C2CC2)c2ccccc12 [Lesinurad, lesinurad]
Patients with gout flares requiring treatment in a month (patients with gout; 200 mg daily, out of 46 patients): 10 | Time of efficacy (area under curve of mean AIN levels over time) (patients with gout; 200 mg/day): 158.5 | Flares per patient month (flare frequency) (patients with gout; 200 mg/day): 0.22 flares per patient month | Patients with gout flares requiring treatment in a month (patients with gout; 400 mg daily, out of 42 patients): 13 | Time of efficacy (area under curve of mean AIN levels over time) (patients with gout; 400 mg/day): 165.8 | Flares per patient month (flare frequency) (patients with gout; 400 mg/day): 0.31 flares per patient month | Patients with gout flares requiring treatment in a month (patients with gout; 600 mg daily, out of 48 patients): 15 | Time of efficacy (area under curve of mean AIN levels over time) (patients with gout; 600 mg/day): 167.5 | Flares per patient month (flare frequency) (patients with gout; 600 mg/day): 0.31 flares per patient month

Recombinant Pegylated Candida Urate Oxidase [pegsiticase]
Uric acid levels ([2]; after the first dose in the treatment period): below 6 mg/dl | Uric acid levels ([2]; subsequent doses in the treatment period and challenge period): > 6 mg/dL | Uricase specific ADA levels (antibody formation) ([2]; uricase deficient mice, treatment period (days 0, 7, 14) and challenge period (days 35, 42)): developed uricase specific ADAs | Uricase specific ADAs (nonhuman primates): high levels of uricase specific ADAs | Flare in 1st month ([3]; individual subject with history of gout, SEL-037 0.8 mg/kg): no | Flare in 1st month ([3]; individual subjects with history of gout, SEL-037 0.1 mg/kg, 0.1 mg/kg): no and yes (2×) and yes (positive for | Flare in 1st month ([3]; individual subjects with history of gout, SEL-037 0.2 mg/kg, 0.2 mg/kg): no and yes (mild gout, right | Subjects with a history of gout with signs of gout flare in the first month ([3]; pegsiticase alone, 4 out of 7 patients): 57% | Onset of reduction of average serum uric acid levels ([3]; single IV infusion, 0.1 to 1.2 mg/kg): within hours | Serious adverse events and tolerability ([3]; single IV infusion, five dose levels 0.1 to 1.2 mg/kg): no serious adverse events and was well tolerated | Uricase specific ADAs ([3]; single IV infusion, varying levels): induced uricase specific ADAs in all subjects | Serum uric acid maintained ([3]; tolerated dose, 30 day period, in the absence of inhibitory uricase specific ADAs): < 6 mg/dL | Treatment periods with maximum antibody titers <1080 (anti-uricase IgG; 28-day cycles, SEL-212 111/133, pegylated uricase alone 1/7 treatment periods): 14.3% | Anti-uricase antibodies (anti-uricase IgG; pegylated uricase alone, discontinued from the study within the first two months): developed high titer antibodies | Average uricase activity AUC (uricase activity): 3437 mU/dL*wk | Subjects that returned to baseline serum uric acid levels by day 30 ([4]; Cohort #9: pegsiticase alone 0.4 mg/kg): four of the five | Enzyme activity past day 14 ([4]; pegsiticase alone 0.4 mg/kg, Cohort #3 Phase 1a and Cohort #9 Phase 1b): loose the enzyme activity | Uricase specific ADA formation ([4]; pegsiticase alone 0.4 mg/kg, Cohort #3 Phase 1a and Cohort #9 Phase 1b, resulting in return to baseline serum uric acid): uricase specific ADA formation at day 14 | Serum uric acid, initial control ([4]; pegsiticase alone 0.4 mg/kg, Cohort #3 Phase 1a and Cohort #9 Phase 1b, up to day 14): below 6 mg/dL

pegloticase [KRYSTEXXA®]
Treated subjects that developed ADAs ([5]; all KRYSTEXXA-treated subjects): 89% | Flares per patient over the first 3 months ([5]; biweekly pegloticase, 85 patients): 2.3 flares per patient | Time of efficacy (area under curve of mean AIN levels over time) ([5]; biweekly, nonresponders): Nonresponders-84.35 | Time of efficacy (area under curve of mean AIN levels over time) ([5]; biweekly, responders): Responders-26.6 | Flares per patient month (flare frequency) ([5]; biweekly): 0.77 flares per patient month | Subjects classified as non-responders ([5]; monthly dosing cohorts): 65% | Subjects classified as responders (uric acid below 6 mg/dl for 80% of the time at months three and six) ([5]; monthly dosing cohorts): 35% | Mean uric acid levels at four weeks ([5]; non-responders): above 6 mg/dl | Mean uric acid levels at four weeks ([5]; responders): above 4 mg/dl | Flares per patient over the first 3 months ([5]; monthly pegloticase, 84 patients): 2.7 flares per patient | Time of efficacy (area under curve of mean AIN levels over time) ([5]; monthly, nonresponders): Nonresponders-99.75 | Time of efficacy (area under curve of mean AIN levels over time) ([5]; monthly, responders): Responders-53.55 | Flares per patient month (flare frequency) ([5]; monthly, listed as Pegloticase): 0.90 flares per patient month | Flares per patient month (flare frequency) ([5]; monthly, listed as pegloticase): 0.9 flares per patient month
